“And” between values parts separate entries of the source, which are not always exact repeats. Equal values may be shown once.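 Assay format: 96-well plates, 48-hour exposure. Here, GI50 denotes the concentration required for 50% inhibition of growth. TGI is the concentration that stops growth completely.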
Columns and labels:
Test in all cases: inhibition of tumour cell growth, NCI panel, 48 h
HCT-15 colon = system: HCT-15 colon
SN12C renal = system: SN12C renal
SF-295 CNS = system: SF-295 CNS
HT29 colon = system: HT29 colon
RPMI-8226 leukemia = system: RPMI-8226 leukemia
HOP-62 NSCLC = system: HOP-62 NSCLC
MDA-MB-435 = system: MDA-MB-435
PC-3 prostate = system: PC-3 prostate
A498 renal = system: A498 renal
MDA-N = system: MDA-N

Row | SMILES | TGI (HCT-15 colon) | TGI (SN12C renal) | TGI (SF-295 CNS) | TGI (HT29 colon) | TGI (RPMI-8226 leukemia) | TGI (HOP-62 NSCLC) | TGI (MDA-MB-435) [µM] | TGI (PC-3 prostate) [µM] | TGI (A498 renal) | TGI (MDA-N) [µM] | GI50 (RPMI-8226 leukemia) [µM] | GI50 (MDA-MB-435) [µM] | GI50 (PC-3 prostate) [µM] | GI50 (HCT-15 colon) [µM] | GI50 (SN12C renal) [µM] | GI50 (HT29 colon) [µM] | GI50 (HOP-62 NSCLC) [µM] | GI50 (A498 renal) [µM] | GI50 (SF-295 CNS) [µM]
1 | CCCCCCNC(=O)c1cnc(Cl)cn1 | 7.25 µM | 26 µM | 39.4 µM | > 100 µM | > 100 µM | 34.3 µM | 28.9 | 22.8 | – | – | – | – | – | – | – | – | – | – | –
2 | NC(N)=N/N=C/c1c(-c2ccccc2)nc2n1ccc1nc(-c3ccccc3)c(/C=N/N=C(N)N)n12 | > 100 µM | > 100 µM | > 100 µM | > 100 µM | > 100 µM | > 100 µM | > 100 | > 100 | > 100 µM | – | – | – | – | – | – | – | – | – | –
3 | CN(C)CCCNc1ccc2ncn3c4ccccc4c(=O)c1c23 | 85.6 µM | > 100 µM | 39 µM | 19.6 µM | 26.9 µM | > 100 µM | – | – | – | – | – | – | – | – | – | – | – | – | –
4 | CC12CCC(C(=O)OC1=O)C(C)(C)O2 (stereo not given) | – | > 100 µM | > 100 µM | > 100 µM | > 100 µM | > 100 µM | > 100 | > 100 | – | > 100 | – | – | – | – | – | – | – | – | –
5 | O=NC1C(Cl)C2CC1C1C(Br)C(Br)CC21 (stereo not given) | > 100 µM | > 100 µM | > 100 µM | > 100 µM | 68.6 µM | > 100 µM | > 100 | > 100 | > 100 µM | – | – | – | – | – | – | – | – | – | –
6 | CC(=O)C(O)N1C(=O)C=CC1=O (stereo not given) | – | – | – | – | 35 µM and 5.64 µM | – | – | – | > 25 µM and 31.3 µM and 39 µM | 25 | 12.8 | 10700 | 2470 | – | – | – | – | – | –
7 | C[C@@H]1CC[C@H]2C(COCCOCC3=C(C(F)(F)F)O[C@@H]4O[C@@]5(C)CC[C@H]6[C@H](C)CC[C@@H]3[C@@]46OO5)=C(C(F)(F)F)O[C@@H]3O[C@@]4(C)CC[C@@H]1[C@]32OO4 | > 13.8 µM | > 100 µM | – | > 100 µM | – | > 100 µM | > 100 | > 100 | > 96.9 µM | – | < 0.0139 | 0.0426 | < 0.01 | 0.0264 | < 0.0448 | < 0.0138 | > 24 | > 20.2 | –
8 | CN(C)c1ccc(/C=N\NC(=O)CSCC(=O)N/N=C/c2ccc(N(C)C)cc2)cc1 | 53.2 µM | > 100 µM | > 100 µM | > 100 µM | > 100 µM | > 100 µM | > 100 | > 100 | – | – | – | – | – | – | – | – | – | – | –
9 | COc1ccc([C@@H]2ON(C)[C@H]3CN(C)C(=O)[C@@H]23)cc1 | > 100 µM | > 100 µM | > 100 µM | > 100 µM | > 100 µM | > 100 µM | – | > 100 | – | > 100 | – | – | – | – | – | – | – | – | –
10 | Cc1ccccc1N=Nc1ccc(N=Nc2c(O)ccc3ccccc23)c(C)c1 | > 100 µM | > 100 µM | > 100 µM | > 100 µM | > 100 µM | > 100 µM | > 100 | > 100 | > 100 µM | – | – | – | – | – | – | – | – | – | –
11 | C/C=C/[P+](c1ccccc1)(c1ccccc1)c1ccccc1 | > 100 µM | 16.5 µM | 12 µM | 12.9 µM | 0.898 µM | 27.4 µM | 5.97 | > 63.8 | 41.3 µM | 10.6 | – | – | – | – | – | – | – | – | –
12 | CC1C(O)C2(Oc3cc4c(c5c3[C@@H](CC5O)[C@H]2C)CCC2Cc3nc5c(nc3C[C@@]42C)CC2CCC3C4=C[C@H]6O[C@@]7(O[C@@](C)(CO)C[C@@H]7O)C(C)[C@@]6(O)[C@]4(C)[C@@H](O)CC3[C@]2(C)C5)OC1(C)C (stereo not given in full) | > 3.67 µM | > 3.67 µM | 0.105 µM | 0.456 µM | > 3.67 µM | 0.239 µM | – | – | 0.208 µM | – | – | – | – | – | – | – | – | – | –
13 | COc1ccc(N2C(=O)C3c4[nH]c5c(C)cccc5c4C4CCC(C(C)(C)C)CC4C3C2=O)cc1 (stereo not given) | > 10 µM | > 10 µM | > 10 µM | 5.86 µM | > 10 µM | > 10 µM | > 10 | > 10 | > 10 µM | > 10 | – | – | – | – | – | – | – | – | –
14 | CC1=C2C(=O)c3ccccc3C(=O)[C@H]2[C@H]2CCO[C@H]2O1 | 86 µM | 40.4 µM | 48.9 µM | 95.2 µM | 70.4 µM | 40 µM | 39.8 | > 100 | > 100 µM | 36.6 | – | – | – | – | – | – | – | – | –
15 | Cc1ccc(S(=O)(=O)NCCSCCNS(=O)(=O)c2ccc(C)cc2)cc1 | > 100 µM | > 100 µM | > 100 µM | > 100 µM | – | – | > 100 | > 100 | > 100 µM | > 100 | – | – | – | – | – | – | – | – | –
16 | O=c1ccc2cc(O)c(O)cc2o1 | > 100 µM | > 100 µM | > 100 µM | > 100 µM | > 100 µM | > 100 µM | > 100 | > 100 | > 100 µM | > 100 | – | – | – | – | – | – | – | – | –
17 | COc1ccc(-c2c3c(nc4nc(SCCc5ccccc5)nc(N)c24)CCCC3)cc1OC | > 100 µM | > 100 µM | > 100 µM | > 100 µM | > 100 µM | > 100 µM | > 100 | > 100 | – | > 100 | – | – | – | – | – | – | – | – | –
18 | Cc1c2cc[n+](CCN3CCCCC3)cc2c(C)c2c1[nH]c1ccc(O)cc12 | 75 µM and > 100 µM | 20.8 µM and 6.03 µM | 18.4 µM and > 100 µM | 28 µM and 47.4 µM | 23.3 µM and 11.6 µM | 13 µM and 18.3 µM | 34.5 | 28.6 | 48 µM and 30.5 µM | 51 | 1.74 | – | – | – | 0.16 | 4.67 | – | 3.48 | 5.43
19 | CCCCCCCSc1nc2c(C(=O)OCC)ncn2c2ccccc12 | > 100 µM | > 100 µM | > 100 µM | > 100 µM | > 100 µM | > 100 µM | – | – | – | – | – | – | – | – | – | – | – | – | –
20 | CN(C)CCNc1nc(-c2ccc3ccccc3c2)nc2nc[nH]c12 | 18.3 µM | 26.3 µM | 26.9 µM | 16.4 µM | > 100 µM | 23.1 µM | 25 | 18.4 | – | 23.2 | – | – | – | – | – | – | – | – | –
21 | CN1CCCCC1CCN1CCCCC1 (stereo not given) | > 100 µM | > 100 µM | > 100 µM | > 100 µM | > 100 µM | > 100 µM | > 100 | > 100 | > 100 µM | > 100 | – | – | – | – | – | – | – | – | –

— PubChem BioAssay (NCI)
